What all share (assay): MIC, standard microtiter broth serial dilution test
Common to all, as to format: cell-based

Test [1] relates to erythromycin resistant strains of Streptococcus pneumoniae.
Test [2] has as its system erythromycin resistant strains of Streptococcus pyogenes.
The next test relates to M. catarrhalis ATCC 0324. The note with it: Moraxella catarrhalis, ATCC0324.
For another test, the system named is H. influenzae ATCC 0529. The note with it: Haemophilus influenzae, ATCC0529.
In the next test the test system is S. pyogenes 0542. To be noted: Streptococcus pyogenes.
For test [3], the system named is S. aureus Smith ATCC 0329. To be noted: Staphylococcus aureus, ATCC0329.
In another test the test system is E. faecalis ATCC 0004. To be noted: Enterococcus faecalis, ATCC0004.
Another test concerns S. pneumoniae 0541. To be noted: Streptococcus pneumoniae.

On to `CCO/N=C1\[C@H](C)C[C@@](C)(O)[C@H](OC2O[C@H](C)C[C@H](N(C)C)[C@H]2O)[C@@H](C)[C@H](OC2C[C@@](C)(OC)[C@@H](OC(=O)CCOCCOCCCc3ccc4c(c3)c(=O)c(C(=O)O)cn4CC)[C@H](C)O2)[C@@H](C)C(=O)O[C@H](CC)[C@@](C)(O)[C@H](O)[C@H]1C` (stereo partly drawn) [Example 52, 9-Ethyloximino-4″-O-(3-{2-[3-(3-carboxy-1-ethyl-4-oxo-1,4-dihydro-quinolin-6-yl)-propoxy]-ethoxy}-propionyl)-erythromycin A], for which the MIC in test [1] and in test [2] was ≤ 0.25 µg/mL each time.
Consider `CC[C@H]1OC(=O)[C@H](C)[C@@H](O[C@H]2C[C@@](C)(OC)[C@@H](OC(=O)CCOCCOCCCc3ccc4c(c3)c(=O)c(C(=O)O)cn4CC)[C@H](C)O2)[C@H](C)[C@@H](OC2O[C@H](C)C[C@H](N(C)C)[C@H]2O)[C@](C)(O)C[C@@H](C)CN(C)[C@H](C)[C@@H](O)[C@]1(C)O` (stereo partly drawn) [Example 49, 4″-O-(3-{2-[3-(3-carboxy-1-ethyl-4-oxo-1,4-dihydro-quinolin-6-yl)-propoxy]-ethoxy}-propionyl)-azithromycin], for which the MIC against M. catarrhalis ATCC 0324 is ≤ 2 µg/mL; against H. influenzae ATCC 0529, ≤ 2 µg/mL; in test [1], ≤ 0.25 µg/mL; in test [2], ≤ 0.25 µg/mL; in the test with S. pyogenes 0542, ≤ 1 µg/mL; in test [3] it was ≤ 1 µg/mL. Further, the MIC with E. faecalis ATCC 0004 and against S. pneumoniae 0541 was ≤ 1 µg/mL throughout.
As to `CC[C@H]1OC(=O)[C@H](C)[C@@H](O[C@H]2C[C@@](C)(OC)[C@@H](OC(=O)CCOCCOCCNc3cc4c(=O)c(C(=O)O)cn(C5CC5)c4cc3Cl)[C@H](C)O2)[C@H](C)[C@@H](O[C@@H]2O[C@H](C)C[C@H](N(C)C)[C@H]2O)[C@](C)(O)C[C@@H](C)/C(=N\OCOCCOC)[C@H](C)[C@@H](O)[C@]1(C)O` [Example 6, 4″-O-(3-{2-[2-(3-Carboxy-7-chloro-1-cyclopropyl-4-oxo-1,4-dihydro-quinolin-6-ylamino)-ethoxy]-ethoxy}-propionyl)-roxythromycin], the MIC was ≤ 0.25 µg/mL in test [1]; ≤ 0.25 µg/mL in test [2]; ≤ 1 µg/mL against S. pyogenes 0542; ≤ 1 µg/mL in test [3]; ≤ 1 µg/mL against E. faecalis ATCC 0004; ≤ 1 µg/mL against S. pneumoniae 0541.
On to `CCO/N=C1\[C@H](C)C[C@@](C)(O)[C@H](O[C@@H]2O[C@H](C)C[C@H](N(C)C)[C@H]2O)[C@@H](C)[C@H](OC2C[C@@](C)(OC)[C@@H](OC(=O)CCOCCOCCNc3cc4c(=O)c(C(=O)O)cn(C5CC5)c4cc3Cl)[C@H](C)O2)[C@@H](C)C(=O)O[C@H](CC)[C@@](C)(O)[C@H](O)[C@H]1C` (stereo partly drawn) [Example 19, 4″-O-(3-{2-[2-(3-Carboxy-7-chloro-1-cyclopropyl-4-oxo-1,4-dihydro-quinolin-6-ylamino)-ethoxy]-ethoxy}-propionyl)-9(E)-ethoxyimino-erythromycin A], for which the MIC against M. catarrhalis ATCC 0324 was ≤ 2 µg/mL; in the test on H. influenzae ATCC 0529 it was ≤ 2 µg/mL; in test [1] it was ≤ 0.25 µg/mL; in test [2] it was ≤ 0.25 µg/mL; in the test on S. pyogenes 0542, ≤ 1 µg/mL; in test [3] it was ≤ 1 µg/mL. The MIC against E. faecalis ATCC 0004 and in the test with S. pneumoniae 0541 was ≤ 1 µg/mL each time.
For `CC[C@H]1OC(=O)[C@H](C)[C@@H](O[C@H]2C[C@@](C)(OC)[C@@H](OC(=O)CCOCCOCCOc3cc4c(=O)c(C(=O)O)cn(C5CC5)c4cc3Cl)[C@H](C)O2)[C@H](C)[C@@H](O[C@@H]2O[C@H](C)C[C@H](N(C)C)[C@H]2O)[C@](C)(O)C[C@@H](C)CN(C)[C@H](C)[C@@H](O)[C@]1(C)O` [Example 55, 4″-O-(3-{2-[2-(3-Carboxy-7-chloro-1-cyclopropyl-4-oxo-1,4-dihydro-quinolin-6-yloxy)-ethoxy]-ethoxy}-propionyl)-azithromycin], the MIC is ≤ 2 µg/mL against M. catarrhalis ATCC 0324; ≤ 2 µg/mL against H. influenzae ATCC 0529; ≤ 0.25 µg/mL in test [1]; ≤ 0.25 µg/mL in test [2]; ≤ 1 µg/mL in the test with S. pyogenes 0542; ≤ 1 µg/mL in test [3]. In addition, the MIC against E. faecalis ATCC 0004 and with S. pneumoniae 0541 was ≤ 1 µg/mL each time.
Regarding `CC[C@H]1OC(=O)[C@H](C)[C@@H](O[C@H]2C[C@@](C)(OC)[C@@H](OC(=O)CCOCCOCCNc3cc4c5c(c3)c(=O)c(C(=O)O)cn5CCC4)[C@H](C)O2)[C@H](C)[C@@H](O[C@@H]2O[C@H](C)C[C@H](N(C)C)[C@H]2O)[C@](C)(OC)C[C@@H](C)C(=O)[C@H](C)[C@@H](O)[C@]1(C)O` [Example 33, 4″-O-(3-{2-[2-(6-Carboxy-7-oxo-2,3-dihydro-1H,7H-pyrido[3,2,1-ij]quinolin-9-ylamino)-ethoxy]-ethoxy}-propionyl)-6-O-methyl-erythromycin A], the MIC was ≤ 2 µg/mL in the test on M. catarrhalis ATCC 0324; ≤ 2 µg/mL with H. influenzae ATCC 0529; ≤ 0.25 µg/mL in test [1]; ≤ 0.25 µg/mL in test [2]; ≤ 1 µg/mL with S. pyogenes 0542; ≤ 1 µg/mL in test [3]. Also, the MIC against E. faecalis ATCC 0004 and against S. pneumoniae 0541 was ≤ 1 µg/mL in each case.
With `CC[C@H]1OC(=O)[C@H](C)[C@@H](OC2C[C@@](C)(OC)[C@@H](OC(=O)CCOCCOCCNc3cc4c5c(c3)c(=O)c(C(=O)O)cn5CCC4)[C@H](C)O2)[C@H](C)[C@@H](O[C@@H]2O[C@H](C)C[C@H](N(C)C)[C@H]2O)[C@](C)(O)C[C@@H](C)CN(C)[C@H](C)[C@@H](O)[C@]1(C)O` (stereo partly drawn) [Example 32, 4″-O-(3-{2-[2-(6-Carboxy-7-oxo-2,3-dihydro-1H,7H-pyrido[3,2,1-ij]quinolin-9-ylamino)-ethoxy]-ethoxy}-propionyl)-azithromycin], the MIC was ≤ 2 µg/mL in the test with M. catarrhalis ATCC 0324; ≤ 2 µg/mL against H. influenzae ATCC 0529; ≤ 0.25 µg/mL in test [1]; ≤ 0.25 µg/mL in test [2]; ≤ 1 µg/mL in the test with S. pyogenes 0542; ≤ 1 µg/mL in test [3]. The MIC against E. faecalis ATCC 0004 and in the test on S. pneumoniae 0541 was ≤ 1 µg/mL in each case.
`CC[C@H]1OC(=O)[C@H](C)[C@@H](O[C@H]2C[C@@](C)(OC)[C@@H](OC(=O)CCOCCOCCNc3ccc4c(c3)c(=O)c(C(=O)O)cn4CC)[C@H](C)O2)[C@H](C)[C@@H](O[C@@H]2O[C@H](C)C[C@H](N(C)C)[C@H]2O)[C@](C)(O)C[C@@H](C)CN(C)[C@H](C)[C@@H](O)[C@]1(C)O` [Example 30, 4″-O-(3-{2-[2-(3-Carboxy-1-ethyl-4-oxo-1,4-dihydro-quinoline-6-ylamino)-ethoxy]-ethoxy}-propionyl)-azithromycin]: the MIC against M. catarrhalis ATCC 0324 was ≤ 2 µg/mL; in the test with H. influenzae ATCC 0529 it was ≤ 2 µg/mL; in test [1] it was ≤ 0.25 µg/mL; in test [2], ≤ 0.25 µg/mL; against S. pyogenes 0542, ≤ 1 µg/mL; in test [3] it was ≤ 1 µg/mL. Besides, the MIC with E. faecalis ATCC 0004 and against S. pneumoniae 0541 was ≤ 1 µg/mL each time.
Turning to `CC[C@H]1OC(=O)[C@H](C)[C@@H](O[C@H]2C[C@@](C)(OC)[C@@H](OC(=O)CCNCCOCCOCCNc3cc4c(=O)c(C(=O)O)cn(C5CC5)c4cc3Cl)[C@H](C)O2)[C@H](C)[C@@H](O[C@@H]2O[C@H](C)C[C@H](N(C)C)[C@H]2O)[C@](C)(O)C[C@@H](C)CN(C)[C@H](C)[C@@H](O)[C@]1(C)O` [Example 65, 4″-O-[3-(2-{2-[2-(3-Carboxy-7-chloro-1-cyclopropyl-4-oxo-1,4-dihydro-quinolin-6-ylamino)-ethoxy]-ethoxy}-ethylamino)-propionyl]-azithromycin], the MIC in the test with M. catarrhalis ATCC 0324 was ≤ 2 µg/mL; with H. influenzae ATCC 0529, ≤ 2 µg/mL; in test [1] it was ≤ 0.25 µg/mL; in test [2], ≤ 0.25 µg/mL; in the test with S. pyogenes 0542, ≤ 1 µg/mL; in test [3], ≤ 1 µg/mL. The MIC in the test on E. faecalis ATCC 0004 and against S. pneumoniae 0541 was ≤ 1 µg/mL each time.
As for `CC[C@H]1OC(=O)[C@H](C)[C@@H](O[C@H]2C[C@@](C)(OC)[C@@H](OC(=O)CCOCCOCCNc3cc4c(=O)c(C(=O)O)cn(C5CC5)c4cc3Cl)[C@H](C)O2)[C@H](C)[C@@H](O[C@@H]2O[C@H](C)C[C@H](N(C)C)[C@H]2O)[C@](C)(O)C[C@@H](C)CN(C)[C@H](C)[C@@H](O)[C@]1(C)O` [Example 8, 4″-O-(3-{2-[2-(3-Carboxy-7-chloro-1-cyclopropyl-4-oxo-1,4-dihydro-quinolin-6-ylamino)-ethoxy]-ethoxy}-propionyl)-azithromycin], the MIC in the test with M. catarrhalis ATCC 0324 was ≤ 2 µg/mL; against H. influenzae ATCC 0529, ≤ 2 µg/mL; in test [1] it was ≤ 0.25 µg/mL; in test [2], ≤ 0.25 µg/mL; in the test with S. pyogenes 0542, ≤ 1 µg/mL; in test [3], ≤ 1 µg/mL. Besides, the MIC in the test on E. faecalis ATCC 0004 and with S. pneumoniae 0541 was ≤ 1 µg/mL throughout.
As for `CC[C@H]1OC(=O)[C@H](C)[C@@H](OC2C[C@@](C)(OC)[C@@H](OC(=O)CCNCCOCCCc3ccc4c(c3)c(=O)c(C(=O)O)cn4CC)[C@H](C)O2)[C@H](C)[C@@H](OC2O[C@H](C)C[C@H](N(C)C)[C@H]2O)[C@](C)(O)C[C@@H](C)CN(C)[C@H](C)[C@@H](OC)[C@]1(C)O` (stereo partly drawn) [Example 24, 11-O-Methyl-4″-O-(3-{2-[3-(3-Carboxy-1-ethyl-4-oxo-1,4-dihydro-quinolin-6-yl)-propoxy]-ethylamino}-propionyl)-azithromycin], the MIC in the test with M. catarrhalis ATCC 0324 is ≤ 2 µg/mL; against H. influenzae ATCC 0529 it was ≤ 2 µg/mL; in the test on S. pyogenes 0542 it was ≤ 1 µg/mL; in test [3], ≤ 1 µg/mL; against E. faecalis ATCC 0004 it was ≤ 1 µg/mL; with S. pneumoniae 0541, ≤ 1 µg/mL.
